Data from US20100256133A1, “NOVEL COMPOUNDS HAVING INDAZOLE FRAMEWORKS, METHODS FOR PREPARING THE SAME AND PHARMACEUTICAL COMPOSITION COMPRISING THE SAME” (priority 2007, published 2010).

Biological target: T1, GSK3β (Homo sapiens, UniProt P49841)
T1 construct: made in house; host or cells: Sf21 insect cells
Test: Assay for inhibitory activity against GSK3β (Kinase-Glo luminescence)
Type: biochemical
Conditions: 750 nM ATP, 4 μM GSY-2 phosphopeptide; for inhibition at 25 µM: compound at 25 μM; for inhibition at 25 µM / inhibition at 50 µM: vs control without compound; for inhibition at 50 µM: compound at 50 μM
Protocol: The compounds of the present invention were assayed for inhibitory activity against GSK3β. The GSK-3 is implicated in the incidence of various diseases including diabetes, Alzheimer's disease, CNS disorders and hypertrophic cardiomyopathy.
GSK3β was purified from Sf21 cells using a procedure described in the literature, R. Dajani et. al. (Cell 2001, […], 721-732). GSK3β activity was examined at room temperature in 50 μl of 40 mM Tris-HCl, pH7.4, 10 mM MgCl2, 1 mM DTT, 0.2 mM EDTA, 200 μM NaVO3, 10 mM β-glyceralphosphate, 1 mM EGTA buffer containing 750 nM ATP and 4 μM GSY-2 phosphopeptide (substrate). After incubation at room temperature for […], Kinase-Glo reagent (Promega) was added to reaction mixtures of Preparation Examples 1-1 to 1-12, 1-80 to 1-90, and 1-92. The well plates were incubated at room temperature for […] to stabilize luminescent signals. The luminescent intensity, reflecting the quantity of ATP, was recorded using a counter (Wallac Victor 1420 multilabel counter) and used to determine % inhibition of GSK3β as compared to ATP level in the control to which none of the compounds of the present invention were added.

T1 sequence (P49841 whole entry): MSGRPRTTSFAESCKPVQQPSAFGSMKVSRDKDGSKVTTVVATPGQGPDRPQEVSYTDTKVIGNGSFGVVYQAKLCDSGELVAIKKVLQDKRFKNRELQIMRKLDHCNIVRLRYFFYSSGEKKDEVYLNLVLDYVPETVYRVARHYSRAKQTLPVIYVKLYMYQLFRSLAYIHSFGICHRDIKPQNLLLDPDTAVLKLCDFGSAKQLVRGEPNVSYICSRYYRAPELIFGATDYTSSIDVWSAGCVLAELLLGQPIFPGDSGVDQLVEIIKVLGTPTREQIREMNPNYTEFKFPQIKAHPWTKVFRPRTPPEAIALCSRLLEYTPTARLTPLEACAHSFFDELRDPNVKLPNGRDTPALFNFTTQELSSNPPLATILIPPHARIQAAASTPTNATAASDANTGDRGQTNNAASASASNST

IC50 [µM]	inhibition at 25 µM [%]	inhibition at 50 µM [%]	SMILES
10.2	80.8	96.3	O=C(Nc1n[nH]c2nc(-c3cnn4ccccc34)c(F)cc12)C1CC1 [Example 1-1]
14.9	76.9	95.3	O=C(Nc1n[nH]c2nc(-c3cnn4ccccc34)c(F)cc12)C1CCCC1 [Example 1-2]
–	11.6	53.1	Cc1cccc2c(-c3nc4[nH]nc(NC(=O)C5CC5)c4cc3F)cnn12 [Example 1-3]
–	63.8	82.1	Cc1cccc2c(-c3nc4[nH]nc(NC(=O)C5CCCC5)c4cc3F)cnn12 [Example 1-4]
–	35.1	78	Cc1cccc2c(-c3nc4[nH]nc(NC(=O)c5cccc(C#N)c5)c4cc3F)cnn12 [Example 1-5]
–	48.3	70.8	Cc1cccc2c(-c3nc4[nH]nc(NC(=O)Cc5ccc(F)cc5)c4cc3F)cnn12 [Example 1-6]
13.3	71.2	92.3	Cc1cccc2c(-c3nc4[nH]nc(NC(=O)c5ccc(N(C)C)cc5)c4cc3F)cnn12 [Example 1-7]
–	37.7	61.6	COc1ccn2ncc(-c3nc4[nH]nc(NC(=O)C5CC5)c4cc3F)c2c1 [Example 1-8]
20	58.2	94.6	COc1ccn2ncc(-c3nc4[nH]nc(NC(=O)Cc5ccc(F)cc5)c4cc3F)c2c1 [Example 1-9]
14.4	77.4	90.7	O=C(Cc1ccc(F)cc1)Nc1n[nH]c2nc(-c3cnn4ccccc34)c(F)cc12 [Example 1-10]
–	30	–	Nc1n[nH]c2nc(-c3cnn4ccccc34)c(F)cc12 [Example 1-11]
–	87.7	–	COc1ccn2ncc(-c3nc4[nH]nc(N)c4cc3F)c2c1 [Example 1-12]
–	19.7	37.8	CC(=O)OCCn1nc(N)c2cc(F)c(-c3cnn4c(C)cccc34)nc21 [Example 1-80]
–	81.9	97.5	CC(=O)OCCn1nc(NC(=O)c2ccc(F)cc2)c2cc(F)c(-c3cnn4c(C)cccc34)nc21 [Example 1-81]
–	64.5	80.4	CC(=O)OCCn1nc(N)c2cc(F)c(-c3cnn4ccccc34)nc21 [Example 1-82]
–	81.2	87.2	COc1ccn2ncc(-c3nc4c(cc3F)c(N)nn4CCOC(C)=O)c2c1 [Example 1-83]
–	24.4	49.5	CC(=O)OCCn1nc(NC(=O)C2CC2)c2cc(F)c(-c3cnn4ccccc34)nc21 [Example 1-84]
34.9	68.6	90.1	CC(=O)OCCn1nc(NC(=O)C2CCCC2)c2cc(F)c(-c3cnn4ccccc34)nc21 [Example 1-85]
–	47.9	86.5	O=C(Cc1ccc(F)cc1)Nc1nn(CCO)c2nc(-c3cnn4ccccc34)c(F)cc12 [Example 1-86]
–	26.7	–	Nc1nn(CCO)c2nc(-c3cnn4ccccc34)c(F)cc12 [Example 1-87]
–	23	–	CC(=O)OCCn1nc(NC(=O)c2ccccc2)c2cc(F)c(-c3cnn4ccccc34)nc21 [Example 1-88]
–	1.5	–	O=C(Nc1nn(CCO)c2nc(-c3cnn4ccccc34)c(F)cc12)c1ccccc1 [Example 1-89]
–	116	–	COc1ccn2ncc(-c3nc4c(cc3F)c(N)nn4CCO)c2c1 [Example 1-90]
–	117	–	COc1ccn2ncc(-c3nc4c(cc3F)c(NC(=O)c3ccccc3)nn4CCO)c2c1 [Example 1-92]
–	51.6	88.6	Cc1cccc2c(-c3nc4c(cc3F)c(NC(=O)c3ccc(F)cc3)nn4C(=O)c3ccc(F)cc3)cnn12 [Example 1-93]
–	41.7	87.2	O=C(Nc1nn(C(=O)C2CCCC2)c2nc(-c3cnn4ccccc34)c(F)cc12)C1CCCC1 [Example 1-94]
–	53.2	78.9	CC(=O)OCCn1nc(NC(=O)Cc2ccc(F)cc2)c2cc(F)c(-c3cnn4ccccc34)nc21 [Example 1-95]
